From ChEMBL document CHEMBL5390265, “Design, Synthesis, and Pharmacological Evaluation of Multisubstituted Pyrido[4,3-d]pyrimidine Analogues Bearing Deuterated Methylene Linkers as Potent KRASG12D Inhibitors” (J Med Chem, 2023)
The source made the active and inactive calls. No cut-off for these calls is given here.

Experiments:
GTPase KRas [1] = target: T1, GTPase KRas (Homo sapiens, UniProt P01116); assay: Inhibition of KRAS in human ASPC1 cells assessed as downregulation of ERK phosphorylation incubated for 3 hrs by immunoblotting analysis; assay type: cell-based; conditions: tested as the 2H-labelled form
GTPase KRas [2] = target: T1, GTPase KRas; assay: Inhibition of KRAS in human ASPC1 cells assessed as downregulation of AKT phosphorylation incubated for 3 hrs by immunoblotting analysis; assay type: cell-based; conditions: tested as the 2H-labelled form
GTPase KRas [3] = target: T1, GTPase KRas; assay: Inhibition of KRAS in human AGS cells assessed as downregulation of ERK phosphorylation incubated for 3 hrs by immunoblotting analysis; assay type: cell-based; conditions: tested as the 2H-labelled form
GTPase KRas [4] = target: T1, GTPase KRas; assay: Inhibition of KRAS in human AGS cells assessed as downregulation of AKT phosphorylation incubated for 3 hrs by immunoblotting analysis; assay type: cell-based; conditions: tested as the 2H-labelled form
ASPC1 [5] = assay: Antitumor activity against human ASPC1 cells xenografted in mouse assessed as inhibition of ERK phosphorylation level at 10 mg/kg,ip administrated twice daily for 20 consecutive days by immunoblotting analysis; assay type: functional, organism-based; conditions: tested as the 2H-labelled form
ASPC1 [6] = assay: Antitumor activity against human ASPC1 cells xenografted in mouse assessed as inhibition of ERK phosphorylation level at 20 mg/kg,ip administrated twice daily for 20 consecutive days by immunoblotting analysis; assay type: functional, organism-based; conditions: tested as the 2H-labelled form
ASPC1 [7] = assay: Antitumor activity against human ASPC1 cells xenografted in mouse assessed as inhibition of AKT phosphorylation level at 10 mg/kg,ip administrated twice daily for 20 consecutive days by immunoblotting analysis; assay type: functional, organism-based; conditions: tested as the 2H-labelled form
ASPC1 [8] = assay: Antitumor activity against human ASPC1 cells xenografted in mouse assessed as inhibition of AKT phosphorylation level at 20 mg/kg,ip administrated twice daily for 20 consecutive days by immunoblotting analysis; assay type: functional, organism-based; conditions: tested as the 2H-labelled form
ASPC1 [9] = assay: Antitumor activity against human ASPC1 cells xenografted in mouse assessed as inhibition of Ki-67 expression level at 10 mg/kg,ip administrated twice daily for 20 consecutive days by immunohistochemistry analysis; assay type: functional, organism-based; conditions: tested as the 2H-labelled form
ASPC1 [10] = assay: Antitumor activity against human ASPC1 cells xenografted in mouse assessed as inhibition of Ki-67 expression level at 20 mg/kg,ip administrated twice daily for 20 consecutive days by immunohistochemistry analysis; assay type: functional, organism-based; conditions: tested as the 2H-labelled form
ASPC1 [11] = assay: Antiproliferative activity against human ASPC1 cells harboring […] assessed as inhibition of cell growth incubated for 5 days by crystal violet staining analysis; assay type: functional, cell-based; conditions: Homo sapiens, ASPC1, 120 h
AGS [12] = assay: Antiproliferative activity against human AGS cells harboring […] assessed as inhibition of cell growth incubated for 5 days by crystal violet staining analysis; assay type: functional, cell-based; conditions: Homo sapiens, AGS, 120 h
A549 = assay: Antiproliferative activity against human A549 cells harboring […] assessed as inhibition of cell growth incubated for 5 days by crystal violet staining analysis; assay type: functional, cell-based; conditions: Homo sapiens, A549, 120 h
NCI-H1299 = assay: Antiproliferative activity against human NCI-H1299 cells harboring KRAS wild type assessed as inhibition of cell growth incubated for 5 days by crystal violet staining analysis; assay type: functional, cell-based; conditions: NCI-H1299, 120 h
[13] = Inhibition of recombinant human His6-tagged KRAS4B G12D mutant incubated for 1 hr by HTRF assay
[14] = Half life in Sprague-Dawley rat at 1 mg/kg,iv measured upto 24 hrs by LC-MS/MS analysis; assay type: ADME, organism-based; conditions: in vivo
[15] = AUC in Sprague-Dawley rat at 1 mg/kg,iv measured upto 24 hrs by LC-MS/MS analysis; assay type: ADME, organism-based; design: dose 1 mg/kg, time < 24 hrs, route iv; conditions: in vivo
[16] = Clearance in Sprague-Dawley rat at 1 mg/kg,iv measured upto 24 hrs by LC-MS/MS analysis; assay type: ADME, organism-based; conditions: in vivo
[17] = Metabolic stability in rat liver microsomes assessed as half life at 150 uM measured after 60 mins in presence of NADPH by LC-MS/MS analysis; assay type: ADME, Microsome
[18] = Metabolic stability in monkey liver microsomes assessed as half life at 150 uM measured after 60 mins in presence of NADPH by LC-MS/MS analysis; assay type: ADME, Macaca mulatta, Microsome; conditions: rhesus monkey
[19] = Metabolic stability in dog liver microsomes assessed as half life at 150 uM measured after 60 mins in presence of NADPH by LC-MS/MS analysis; assay type: ADME, Canis lupus familiaris, Microsome
[20] = Metabolic stability in rat liver microsomes assessed as intrinsic clearance at 150 uM measured after 60 mins in presence of NADPH by LC-MS/MS analysis; assay type: ADME, Microsome; conditions: read-out: CLH
[21] = Metabolic stability in monkey liver microsomes assessed as intrinsic clearance at 150 uM measured after 60 mins in presence of NADPH by LC-MS/MS analysis; assay type: ADME, Macaca mulatta, Microsome; conditions: rhesus monkey, read-out: CLH
[22] = Metabolic stability in dog liver microsomes assessed as intrinsic clearance at 150 uM measured after 60 mins in presence of NADPH by LC-MS/MS analysis; assay type: ADME, Canis lupus familiaris, Microsome; conditions: read-out: CLH
ASPC1 [23] = assay: Induction of apoptosis in human ASPC1 cells harboring […] assessed as early apoptotic cells at 25 uM incubated for 24 hrs by annexin V and propidium iodide staining based flow cytometry analysis (reference value: 5.22%); assay type: functional
ASPC1 [24] = assay: Induction of apoptosis in human ASPC1 cells harboring […] assessed as late apoptotic cells at 25 uM incubated for 24 hrs by annexin V and propidium iodide staining based flow cytometry analysis (reference value: 6.96%); assay type: functional
AGS [25] = assay: Induction of apoptosis in human AGS cells harboring […] assessed as early apoptotic cells at 25 uM incubated for 24 hrs by annexin V and propidium iodide staining based flow cytometry analysis (reference value: 4.05%); assay type: functional
AGS [26] = assay: Induction of apoptosis in human AGS cells harboring […] assessed as late apoptotic cells at 25 uM incubated for 24 hrs by annexin V and propidium iodide staining based flow cytometry analysis (reference value: 7.74%); assay type: functional
ASPC1 [27] = assay: Antitumor activity against human ASPC1 cells xenografted in mouse assessed as inhibition of tumor growth at 20 mg/kg,ip administrated twice daily for 20 consecutive days relative to control; assay type: functional; conditions: read-out: TGI
[28] = Toxicity in mouse xenografted with human ASPC1 cells assessed as serum creatinine level at 20 mg/kg,ip administrated twice daily for 20 consecutive days (reference value: 28.2 +/- 2.1 umol/L); assay type: organism-based; conditions: in vivo
[29] = Toxicity in mouse xenografted with human ASPC1 cells assessed as serum blood urea nitrogen level at 20 mg/kg,ip administrated twice daily for 20 consecutive days (reference value: 16.3 +/- 1.6 mmol/L); assay type: organism-based; conditions: in vivo
GTPase KRas [30] = target: T1, GTPase KRas; assay: Inhibition of KRAS in human ASPC1 cells assessed as downregulation of ERK phosphorylation at 0.65 nM incubated for 3 hrs by immunoblotting analysis; assay type: cell-based; conditions: tested as the 2H-labelled form
GTPase KRas [31] = target: T1, GTPase KRas; assay: Inhibition of KRAS in human ASPC1 cells assessed as downregulation of AKT phosphorylation at 0.65 nM incubated for 3 hrs by immunoblotting analysis; assay type: cell-based; conditions: tested as the 2H-labelled form
GTPase KRas [32] = target: T1, GTPase KRas; assay: Inhibition of KRAS in human AGS cells assessed as downregulation of ERK phosphorylation at 0.65 nM incubated for 3 hrs by immunoblotting analysis; assay type: cell-based; conditions: tested as the 2H-labelled form
GTPase KRas [33] = target: T1, GTPase KRas; assay: Inhibition of KRAS in human AGS cells assessed as downregulation of AKT phosphorylation at 0.65 nM incubated for 3 hrs by immunoblotting analysis; assay type: cell-based; conditions: tested as the 2H-labelled form
GTPase KRas [34] = target: T1, GTPase KRas; assay: Inhibition of KRAS in human ASPC1 cells assessed as downregulation of ERK phosphorylation at 6.25 to 100 nM incubated for 3 hrs by immunoblotting analysis; assay type: cell-based; conditions: dose 6.25-100 nM, tested as the 2H-labelled form
GTPase KRas [35] = target: T1, GTPase KRas; assay: Inhibition of recombinant human GTP-bound KRAS wild type (1 to 169 residues) incubated for 1 hr by HTRF assay
ASPC1 [36] = assay: Antitumor activity against human ASPC1 cells xenografted in mouse assessed as inhibition of tumor growth at 10 mg/kg,ip administrated twice daily for 20 consecutive days relative to control; assay type: functional; conditions: read-out: TGI

inhibition (GTPase KRas [1])	inhibition (GTPase KRas [2])	inhibition (GTPase KRas [3])	inhibition (GTPase KRas [4])	IC50 (ASPC1 [11])	IC50 (AGS [12])	IC50 (A549)	IC50 (NCI-H1299)	IC50 [13]	half-life [14]	AUC at 24 h [15]	clearance [16]	SMILES	Activity (ASPC1 [5])	Activity (ASPC1 [6])	Activity (ASPC1 [7])	Activity (ASPC1 [8])	Activity (ASPC1 [9])	Activity (ASPC1 [10])	inhibition in vivo at 20 mg/kg (ASPC1 [27])	further results
Dose-Dependent Effect	Dose-Dependent Effect	Dose-Dependent Effect	Dose-Dependent Effect									C#Cc1c(F)ccc2cc(O)cc(-c3ncc4c(NCC5(N(C)C)CCC5)nc(OCC56CCCN5CC(=C(F)F)C6)nc4c3F)c12 (centres undefined)	Active	Active	Active	Active	Active	Active		
				7.9 nM	1.4 nM	> 5000 nM	> 5000 nM	1.24 nM	1.1 h	188 ng·h/mL	91.7 mL/min/kg	C#Cc1c(F)ccc2cc(O)cc(-c3ncc4c(N5C[C@H]6CC[C@@H](C5)N6)nc(OC[C@@]56CCCN5C[C@H](F)C6)nc4c3F)c12							73.3%	half-life at 150 µM [17]: 2.88 h; half-life at 150 µM [18]: 0.568 h; half-life at 150 µM [19]: 1.38 h; microsomal CLint at 150 µM [20]: 8 µL/min/mg; microsomal CLint at 150 µM [21]: 40.6 µL/min/mg; microsomal CLint at 150 µM [22]: 16.8 µL/min/mg; Activity (ASPC1 [23]): 8.65%; Activity (ASPC1 [24]): 12.1%; Activity (AGS [25]): 9.27%; Activity (AGS [26]): 10.4%; Activity [28]: 24.7 µmol/L; Activity [29]: 14 mmol/L
Dose-Dependent Effect	Dose-Dependent Effect	Dose-Dependent Effect	Dose-Dependent Effect									C#Cc1c(F)ccc2cc(N)cc(-c3ncc4c(N5C[C@H]6CC[C@@H](C5)N6)nc(OCC56CCCN5CC(=C(F)F)C6)nc4c3F)c12 (some centres undefined)	Active	Active	Active	Active	Active	Active		inhibition (GTPase KRas [30]): Active; inhibition (GTPase KRas [31]): Active; inhibition (GTPase KRas [32]): Active; inhibition (GTPase KRas [33]): Active; inhibition (GTPase KRas [34]): > 90%
				28.4 nM	12 nM	700 nM	> 5000 nM		9.42 h	218 ng·h/mL	81.1 mL/min/kg	[2H]C([2H])(Oc1nc(NCC2(N(C)C)CCC2)c2cnc(-c3cc(N)cc4ccc(F)c(C#C)c34)c(F)c2n1)C12CCCN1CC(=C(F)F)C2 (centres undefined)								
				1.7 nM	0.6 nM	499 nM	1820 nM	1.21 nM	6.91 h	562 ng·h/mL	33.4 mL/min/kg	[2H]C([2H])(Oc1nc(NCC2(N(C)C)CCC2)c2cnc(-c3cc(O)cc4ccc(F)c(C#C)c34)c(F)c2n1)C12CCCN1CC(=C(F)F)C2 (centres undefined)							68.4%	IC50 (GTPase KRas [35]): 18.5 nM; inhibition in vivo at 10 mg/kg (ASPC1 [36]): 54.7%
